The results in this text go back to patent publication US8748435B2, “Pyrazolo pyrimidine derivatives” (Novartis AG, priority 2011, dated 2014).

Where a name gives a salt, the structure may show the parent alone.

The target of experiment [1] is T1, human GPR4 (Homo sapiens (Human), UniProt P46093). The experiment can be described thus: Human GPR4 binding assay ([3H]4 radioligand, membranes of 300.19 cells expressing human GPR4). The settings on record: radioligand [3H]4 (example 39), membranes of 300.19 cells expressing human GPR4. As to the method:
a) Human GPR4 Binding Assay
(§1) Cells were grown in T175 flasks to a density of about 1×10^6 cells/mL in growth medium. The cells were harvested by centrifugation (3000 rpm for 30 minutes at 4° C.) and the pellet resuspended in ice cold buffer A (20 mM HEPES pH 7.8, 10 mM EDTA, 100 mM NaCl, 1 tab/40 mL protease inhibitor complete). […] The homogenate was centrifuged at 18000 rpm for 50 min at 4° C. and the membrane protein pellet resuspended in cold buffer A using the Polytron (2×20 seconds). The protein concentration is determined using the Bio Rad Protein Assay and human IgG as standard. The volume of the membrane protein suspension is adjusted to a final concentration of about 2 mg protein/mL. The suspension is then once again homogenized (Polytron) on ice at 25000 rpm for 20 seconds before being aliquoted and stored at −80° C.
(§2) Radio Ligand Binding Assay: Serial dilutions of compounds (stock in 10 mM DMSO) are prepared by first diluting the compounds in DMSO followed by a 1:50 dilution into assay buffer (10 mM HEPES, pH 8.0, 100 mM NaCl, 5 mM MgCl2, 1 mM CaCl2, 0.5% fatty acid-free BSA, 0.05% Tween-20). […] The desired amount of membranes (20 μg/well) is diluted with assay buffer. […] 100 μL of the membrane-suspension is added and the plate stirred for 60 minutes. […] The filter plate is washed 5 times with ice-cold wash buffer, dried and sealed at the bottom. Then 20 μL of Microscint 40 is added into each well and the top of the plate is sealed. Finally the plate is counted for 2 min/well in a TopCount NXT instrument (Packard Instruments). The data are analyzed using the GraphPad Prism™ software.

Experiment [2] addresses T1, human GPR4. The experiment can be described thus: Cell-based assay for human GPR4 activity (pH-induced cAMP formation, HTRF, HeLa cells). The settings on record: HeLa cells stably expressing human GPR4, pH-induced cAMP. As to the method:
b) Cell-Based Assay for Human GPR4 Activity
(§3) HeLa cells stably expressing human GPR4 were established by transfecting the cells with a construct containing the human GPR4 coding sequence. The cells were grown in Dulbecco's Modified Eagle Medium (DMEM)/HAM's tissue culture medium F12 (HAM's F12) supplemented with 10% fetal calf serum (FCS), 100 u/ml penicillin, 100 μg/ml streptomycin and 400 μg/ml G418 and 10 mM Hepes pH 8.0. pH-induced formation of cAMP was determined using the homogeneous time resolved fluorescence (HTRF) technology as provided by CisBio Inc. The cells were seeded in 384-well plates and cultured for 24 hours at 37° C., 5% CO2 before performing the assay. Medium was removed and 10 μl buffer A (Hepes buffered saline (HBS), 10 mM Hepes, pH 8, 2 mM 3-Isobutyl-1-methylxanthin (IBMX)) was added. For compound testing, buffer A with 2× concentrated compounds was used. Cells were incubated for 15 min at room temperature. 10 μl buffer B (HBS, 30 mM Hepes, specific pH) was added to reach the appropriate final pH for stimulation (see below) and incubation was continued for 15 min at room temperature. […] HBS: 130 mM NaCl, 0.9 mM NaH2 PO4, 5.4 mM KCl, 0.8 mM MgSO4, CaCl2 1.8 mM, 25 mM glucose, 10-30 mM Hepes. Adjustment of HBS buffers:
(§4) Compounds were diluted from fresh stock solutions at 10 mM in DMSO to 2 mM and then used for serial dilutions in DMSO.

The target of the next experiment is mouse GPR4 (Mus musculus (Mouse), UniProt Q8BUD0). The experiment can be described thus: Mouse GPR4 cAMP assay. In kind it is cell-based. As to the method: as §3, §4
Sequence of mouse GPR4 (Q8BUD0 whole entry): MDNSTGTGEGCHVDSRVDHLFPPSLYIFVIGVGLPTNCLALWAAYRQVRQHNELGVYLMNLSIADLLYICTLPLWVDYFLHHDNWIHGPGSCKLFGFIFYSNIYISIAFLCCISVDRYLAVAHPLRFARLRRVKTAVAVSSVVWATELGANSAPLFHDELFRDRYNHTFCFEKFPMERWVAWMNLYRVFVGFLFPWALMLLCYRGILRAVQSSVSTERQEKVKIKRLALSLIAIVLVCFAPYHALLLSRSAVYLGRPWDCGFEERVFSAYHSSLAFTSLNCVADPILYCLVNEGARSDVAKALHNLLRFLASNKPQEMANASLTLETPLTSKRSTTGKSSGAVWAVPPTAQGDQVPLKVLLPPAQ
(§5) In a similar manner, assays for the mouse (m) and rat (r) GPR4 receptors have been established.

Another experiment concerns the target rat GPR4 (Rattus norvegicus (Rat), UniProt Q4KLH9). Briefly: Rat GPR4 cAMP assay. The settings on record: read-out: r cAMP IC50. In kind it is cell-based. Here is the method:
as §3, §4, §5

The next experiment addresses Human H3 (Homo sapiens (Human), UniProt Q9Y5N1). The experiment can be described thus: Human H3 binding assay (SPA, [3H]-R-alpha-Methylhistamine). The settings on record: 3 nM [3H]-R-alpha-Methylhistamine. Here is the method:
c) Human H3 Binding Assay
The Scintillation Proximity Binding Assay (SPA) assay was performed in a final volume of 50 μL per well in a 384-well polystyrene plate.
The final concentration of the radioligand was 3 nM. • 20 μL of a beads (PVT-WGA type A) and membranes mixed suspension in assay buffer, in order to get a final concentration of 10 μg/well of membranes and 200 μg/well of beads. As an example, 1471 μL membranes (Conc.: 5.1 mg/mL) and 1500 μL of bead suspension (Conc.: 100 mg/mL) are diluted to a final volume of 15 mL of assay buffer.
The plates were sealed and shaken at room temperature, then allowed to stand at room temperature for at least 1 hour. The plates were counted using a Perkin Elmer TopCount reader, each well being counted for 1 minute.

For experiment [3], the target named is T1, human GPR4. Briefly: Human GPR4 binding assay with additional human serum albumin (4% HSA). The settings on record: binding assay with 4% HSA. As to the method:
as §1, §2
In a similar manner, a binding assay with additional human serum albumin (4% HSA) has been established.

For another experiment, the system named is CFA-induced hyperalgesia. Briefly: Established rat hyperalgesia model (CFA). The experiment is classed as in vivo. The settings on record: gavage. As to the method: f) Established Rat Hyperalgesia Model
Naïve withdrawal thresholds of both hind paws were determined by using an increasing pressure stimulus placed onto the dorsal surface of each paw using an analgesymeter. Delayed inflammatory pain was then induced by intra-plantar injection of 25 μl of complete Freund's adjuvant (CFA) into one hindpaw with the contralateral paw acting as the control. […] One hour later, paw withdrawal thresholds were re-measured on both the ipsilateral (CFA-injected) and contralateral (uninjected) paw; measurements were repeated at 3 hrs and 6 hrs post dosing. The reversal of hyperalgesia was calculated using the following formula: Reversal (%)=100×(postdose ipsilateral threshold−predose ipsilateral threshold) (naïve ipsilateral threshold−predose ipsilateral threshold).

T1 sequence (P46093 whole entry): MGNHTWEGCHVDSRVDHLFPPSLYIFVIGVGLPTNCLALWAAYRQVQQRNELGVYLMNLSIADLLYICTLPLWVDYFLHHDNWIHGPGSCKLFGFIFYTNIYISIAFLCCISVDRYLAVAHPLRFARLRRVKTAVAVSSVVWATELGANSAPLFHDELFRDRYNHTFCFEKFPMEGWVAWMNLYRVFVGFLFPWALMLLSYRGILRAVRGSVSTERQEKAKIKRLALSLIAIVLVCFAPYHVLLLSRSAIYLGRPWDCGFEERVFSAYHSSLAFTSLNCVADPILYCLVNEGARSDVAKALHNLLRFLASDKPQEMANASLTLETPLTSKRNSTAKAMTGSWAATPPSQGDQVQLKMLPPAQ
Sequence of Human H3 (Q9Y5N1 whole entry): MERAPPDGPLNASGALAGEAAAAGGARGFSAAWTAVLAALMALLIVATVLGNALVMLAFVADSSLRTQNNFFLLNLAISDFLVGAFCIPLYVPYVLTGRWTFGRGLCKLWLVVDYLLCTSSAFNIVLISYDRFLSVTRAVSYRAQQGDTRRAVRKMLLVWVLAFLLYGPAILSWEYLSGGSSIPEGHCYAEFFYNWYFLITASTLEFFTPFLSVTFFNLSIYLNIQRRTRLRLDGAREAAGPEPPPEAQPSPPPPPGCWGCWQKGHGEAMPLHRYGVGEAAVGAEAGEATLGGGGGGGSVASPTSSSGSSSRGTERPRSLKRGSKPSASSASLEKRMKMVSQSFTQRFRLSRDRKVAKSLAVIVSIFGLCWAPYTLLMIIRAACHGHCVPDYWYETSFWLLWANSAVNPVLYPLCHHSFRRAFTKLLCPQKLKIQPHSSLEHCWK
Sequence of rat GPR4 (Q4KLH9 whole entry): as the sequence (Q8BUD0 whole entry) above, with G8W, H51R, S339T counted along it

Turning to `CCc1nn2c(C)cc(C)nc2c1Cc1ccc(-n2cc(CN3CCNCC3)nn2)cc1` [Example 33, 2-Ethyl-5,7-dimethyl-3-[4-(4-piperazin-1-ylmethyl-[1,2,3]triazol-1-yl)-benzyl]-pyrazolo[1,5-a]pyrimidine], the IC50 is 38 nM on human GPR4 [1]; 31 nM on human GPR4 [2]; 872 nM against mouse GPR4; 616 nM at rat GPR4; more than 10000 nM on Human H3.
In the same order, the values of `CCc1nn2c(C)cc(C)nc2c1Cc1ccc(/C=C/CN2CCN(C(=O)CN)CC2)cc1` [Example 11, 2-Amino-1-(4-{(E)-3-[4-(2-ethyl-5,7-dimethyl-pyrazolo[1,5-a]pyrimidin-3-ylmethyl)-phenyl]-allyl}-piperazin-1-yl)-ethanone dihydrochloride] are 38 nM, 46 nM, 499 nM, 2790 nM and more than 30000 nM.
In the case of `CCc1nn2c(C)cc(C)nc2c1Cc1ccc(/C=C/CC2(O)CCN(C[C@@H](O)CO)CC2)cc1` [Example 6, (R)-3-(4-{(E)-3-[4-(2-Ethyl-5,7-dimethyl-pyrazolo[1,5-a]pyrimidin-3-ylmethyl)-phenyl]-allyl}-4-hydroxy-piperidin-1-yl)-propane-1,2-diol], the IC50 at human GPR4 [1] stood at 24 nM; against human GPR4 [2] it was 19 nM; at mouse GPR4, 128 nM; at rat GPR4, 491 nM.
`CCc1nn2c(C)cc(C)nc2c1Cc1ccc(-n2cc(CN3CCC(N)CC3)cn2)cc1` [Example 30, 1-{1-[4-(2-Ethyl-5,7-dimethyl-pyrazolo[1,5-a]pyrimidin-3-ylmethyl)-phenyl]-1H-pyrazol-4-ylmethyl}-piperidin-4-ylamine]: the half-inhibitory concentration (IC50) on human GPR4 [1] was 26 nM; on human GPR4 [2], 29 nM; on mouse GPR4, 384 nM; on rat GPR4, 497 nM; on Human H3, more than 30000 nM.
Turning to `CCc1nn2c(C)cc(C)nc2c1Cc1ccc(OC[C@H]2CC[C@@H](NC(=O)[C@H]3NCC[C@H]3O)CC2)cc1` [Example 24, (2S,3R)-3-Hydroxy-pyrrolidine-2-carboxylic acid {4-[4-(2-ethyl-5,7-dimethyl-pyrazolo[1,5-a]pyrimidin-3-ylmethyl)-phenoxymethyl]-cyclohexyl}-amide], the IC50 was 63 nM on human GPR4 [3]; 70 nM at human GPR4 [2]; 365 nM against mouse GPR4; 792 nM on rat GPR4; more than 30000 nM at Human H3.
The molecule `CCc1nn2c(C)cc(C)nc2c1Cc1ccc(-c2nnc(C3CCN(C(=O)CNC)CC3)o2)cc1` [Example 37, 1-(4-{5-[4-(2-Ethyl-5,7-dimethyl-pyrazolo[1,5-a]pyrimidin-3-ylmethyl)-phenyl]-[1,3,4]oxadiazol-2-yl}-piperidin-1-yl)-2-methylamino-ethanone] had an IC50 on human GPR4 [2] of 40 nM.
As for `CCc1nn2c(C)cc(C)nc2c1Cc1ccc(OCC2CCN(C(=O)[C@H]3NCC[C@H]3O)CC2)cc1` [Example 22, {4-[4-(2-Ethyl-5,7-dimethyl-pyrazolo[1,5-a]pyrimidin-3-ylmethyl)-phenoxymethyl]-piperidin-1-yl}-((2S,3R)-3-hydroxy-pyrrolidin-2-yl)-methanone], the IC50 at human GPR4 [1] is 19 nM; at human GPR4 [3], 12 nM; against mouse GPR4, 90 nM; at rat GPR4, 202 nM; on Human H3, more than 30000 nM.
`O=C(O)Cc1ccccc1Nc1c(Cl)cccc1Cl` [diclofenac, reference compound]: the “% reversal of hyperalgesia” value with CFA-induced hyperalgesia (30 mg/kg, 1 h) came to 58%; in the experiment with CFA-induced hyperalgesia (30 mg/kg, 3 h), 60%; in the experiment on CFA-induced hyperalgesia (30 mg/kg, 6 h), 30%.
Consider `CCc1nn2c(C)cc(C)nc2c1Cc1ccc(OCC2CCNCC2)cc1` [Example 21, 2-Ethyl-5,7-dimethyl-3-[4-(piperidin-4-ylmethoxy)-benzyl]-pyrazolo[1,5-a]pyrimidine hydrochloride], for which the IC50 at human GPR4 [2] is 12 nM; at mouse GPR4 it was 96 nM; at rat GPR4 it was 489 nM; at Human H3, 25000 nM.
`CCc1nc2c(C)cc(C)nc2n1Cc1ccc(/C=C/CN2CCN(C(C)C)CC2)cc1` [Example 40, 2-Ethyl-3-{4-[(E)-3-(4-isopropyl-piperazin-1-yl)-propenyl]-benzyl}-5,7-dimethyl-3H-imidazo[4,5-b]pyridine, reference compound]: the “% reversal of hyperalgesia” value was determined as 23% with CFA-induced hyperalgesia (3 mg/kg, 1 h); 11% with CFA-induced hyperalgesia (3 mg/kg, 3 h); 0% in the experiment with CFA-induced hyperalgesia (3 mg/kg, 6 h); 48% in the experiment with CFA-induced hyperalgesia (10 mg/kg, 1 h); 40% with CFA-induced hyperalgesia (10 mg/kg, 3 h); 0% in the experiment with CFA-induced hyperalgesia (10 mg/kg, 6 h). The “% reversal of hyperalgesia” value in the experiment on CFA-induced hyperalgesia (30 mg/kg, 1 h) worked out at 55%; with CFA-induced hyperalgesia (30 mg/kg, 3 h), 45%; in the experiment on CFA-induced hyperalgesia (30 mg/kg, 6 h), 8%.
Take `CCc1nn2c(C)cc(C)nc2c1Cc1ccc(-n2cc(CN3CCN[C@@H](CO)C3)cn2)cc1` [Example 32, ((R)-4-{1-[4-(2-Ethyl-5,7-dimethyl-pyrazolo[1,5-a]pyrimidin-3-ylmethyl)-phenyl]-1H-pyrazol-4-ylmethyl}-piperazin-2-yl)-methanol]: the concentration for half-maximal inhibition (IC50) on human GPR4 [2] was 61 nM; on mouse GPR4 it was 255 nM; at rat GPR4, 1330 nM; at Human H3, more than 30000 nM.
In the case of `CCc1nn2c(C)cc(C)nc2c1Cc1ccc(C(=O)NCC2CCNCC2)cc1` [Example 20, 4-(2-Ethyl-5,7-dimethyl-pyrazolo[1,5-a]pyrimidin-3-ylmethyl)-N-piperidin-4-ylmethyl-benzamide], the IC50 on human GPR4 [2] is 79 nM; against mouse GPR4, 366 nM; on rat GPR4, 1500 nM; on Human H3, more than 30000 nM.
Turning to `CCc1nn2c(C)cc(C)nc2c1Cc1ccc(/C=C/CN2CCC(c3nnnn3C)CC2)cc1` [Example 12, 2-Ethyl-5,7-dimethyl-3-(4-{(E)-3-[4-(1-methyl-1H-tetrazol-5-yl)-piperidin-1-yl]-propenyl}-benzyl)-pyrazolo[1,5-a]pyrimidine hydrochloride], the IC50 was 33 nM on human GPR4 [1]; 27 nM on human GPR4 [2]; 233 nM on mouse GPR4; 181 nM on rat GPR4; more than 30000 nM on Human H3.
